{"source": "ChEMBL document CHEMBL3526091", "about": "“Pharmacokinetics, metabolism, and excretion of the glycogen synthase kinase-3 inhibitor LY2090314 in rats, dogs, and humans: a case study in rapid clearance by extensive metabolism with low circulating metabolite exposure” (Drug Metab Dispos, 2013)", "key": {"[1]": {"assay": "Cmax in beagle dog at 5 mg/kg, iv administered for 30 mins", "type": "ADME, organism-based, Canis lupus familiaris", "parameters": "dose 5 mg/kg, dosed compound name [14C]LY2090314, route intravenous", "settings": "in vivo"}, "[2]": {"assay": "Plasma protein binding in rat", "type": "ADME, cell-free", "parameters": "dosed compound name [14C]LY2090314", "settings": "read-out: PPB (converted)"}, "Plasma [3]": {"system": "Plasma", "assay": "Drug recovery in beagle dog plasma assessed as radiochemical peak area at 5 mg/kg, iv administered for 30 mins after 2 hrs by radio analysis", "type": "ADME, organism-based, Canis lupus familiaris", "parameters": "dose 5 mg/kg, dosed compound name [14C]LY2090314, route intravenous", "settings": "in vivo"}, "Homo sapiens": {"organism": "Homo sapiens", "assay": "Drug recovery in cancer patient at 80 to 120 mg for 60 mins", "type": "ADME, organism-based", "parameters": "dosed compound name LY2090314", "settings": "in vivo, 1 h"}, "[4]": {"assay": "Clearance in Sprague-Dawley rat at 5 mg/kg, iv administered for 30 mins", "type": "ADME, organism-based", "parameters": "dose 5 mg/kg, dosed compound name [14C]LY2090314, route intravenous", "settings": "in vivo"}, "[5]": {"assay": "Volume of distribution at steady state in cancer patient at 40 mg for 60 mins treated 1/8 cycle/day", "type": "ADME, organism-based", "parameters": "dosed compound name LY2090314", "settings": "human, in vivo, read-out: Vdss"}, "Canis familiaris [6]": {"system": "Canis familiaris", "assay": "Tmax in beagle dog assessed as total radioactivity at 5 mg/kg, iv administered for 30 mins", "type": "ADME, organism-based, Canis lupus familiaris", "parameters": "dose 5 mg/kg, dosed compound name [14C]LY2090314, route intravenous", "settings": "in vivo, 0.5 h"}, "[7]": {"assay": "AUC (0 to infinity) in cancer patient at 40 mg for 60 mins treated 1/8 cycle/day", "type": "ADME, organism-based", "parameters": "dose 40 mg, time infinity, dosed compound name LY2090314", "settings": "human, plasma"}, "[8]": {"assay": "Clearance in cancer patient at 40 mg for 60 mins treated 1/8 cycle/day", "type": "ADME, organism-based", "parameters": "dosed compound name LY2090314", "settings": "human, in vivo"}, "Canis familiaris [9]": {"system": "Canis familiaris", "assay": "Elimination half life in beagle dog assessed as total radioactivity at 5 mg/kg, iv administered for 30 mins", "type": "ADME, organism-based, Canis lupus familiaris", "parameters": "dose 5 mg/kg, dosed compound name [14C]LY2090314, route intravenous", "settings": "in vivo, 0.5 h"}, "[10]": {"assay": "Drug recovery in Sprague-Dawley rat feces at 5 mg/kg, iv administered for 30 mins during 0 to 168 hrs time interval by radio analysis", "type": "ADME, organism-based", "parameters": "dose 5 mg/kg, dosed compound name [14C]LY2090314, route intravenous", "settings": "in vivo"}, "[11]": {"assay": "Clearance in cancer patient at 20 mg for 60 mins treated 2/1 cycle/day", "type": "ADME, organism-based", "parameters": "dosed compound name LY2090314", "settings": "human, in vivo"}, "[12]": {"assay": "Volume of distribution at steady state in cancer patient at 80 mg for 60 mins treated 1/1 cycle/day", "type": "ADME, organism-based", "parameters": "dosed compound name LY2090314", "settings": "human, in vivo, read-out: Vdss"}, "Plasma [13]": {"system": "Plasma", "assay": "Drug metabolism in Mrp2 knockout Sprague-Dawley rat plasma at 5 mg/kg, iv administered for 30 mins", "type": "ADME, organism-based", "parameters": "dose 5 mg/kg, dosed compound name LY2090314, route intravenous", "settings": "in vivo, 0.5 h"}, "[14]": {"assay": "Tmax in Sprague-Dawley rat at 5 mg/kg, iv administered for 30 mins", "type": "ADME, organism-based", "parameters": "dose 5 mg/kg, dosed compound name [14C]LY2090314, route intravenous", "settings": "in vivo"}, "[15]": {"assay": "Drug recovery in bile duct-cannulated Sprague-Dawley rat bile at 5 mg/kg, iv administered for 30 mins during 0 to 12 hrs time interval by radio analysis", "type": "ADME, organism-based", "parameters": "dose 5 mg/kg, dosed compound name [14C]LY2090314, route intravenous", "settings": "in vivo"}, "[16]": {"assay": "Drug recovery in bile duct-intact beagle dog assessed as radioactivity in feces during 0 to 48 hrs at 5 mg/kg, iv administered for 30 mins", "type": "ADME, organism-based, Canis lupus familiaris", "parameters": "dose 5 mg/kg, dosed compound name [14C]LY2090314, route intravenous", "settings": "in vivo"}, "Canis familiaris [17]": {"system": "Canis familiaris", "assay": "Total drug recovery in beagle dog at 5 mg/kg, iv administered for 30 mins during 48 hrs time interval by radio analysis", "type": "ADME, organism-based, Canis lupus familiaris", "parameters": "dose 5 mg/kg, dosed compound name [14C]LY2090314, route intravenous", "settings": "in vivo"}, "[18]": {"assay": "Drug recovery in bile duct-cannulated Sprague-Dawley rat feces at 5 mg/kg, iv administered for 30 mins during 0 to 168 hrs time interval by radio analysis", "type": "ADME, organism-based", "parameters": "dose 5 mg/kg, dosed compound name [14C]LY2090314, route intravenous", "settings": "in vivo"}, "[19]": {"assay": "Clearance in cancer patient at 80 mg for 60 mins treated 1/8 cycle/day", "type": "ADME, organism-based", "parameters": "dosed compound name LY2090314", "settings": "human, in vivo"}, "Rattus norvegicus": {"system": "Rattus norvegicus", "assay": "Total drug recovery in bile duct-cannulated Sprague-Dawley rat at 5 mg/kg, iv administered for 30 mins during 0 to 12 hrs time interval by radio analysis", "type": "ADME, organism-based", "parameters": "dose 5 mg/kg, dosed compound name [14C]LY2090314, route intravenous", "settings": "in vivo"}, "[20]": {"assay": "Elimination half life in beagle dog at 5 mg/kg, iv administered for 30 mins", "type": "ADME, organism-based, Canis lupus familiaris", "parameters": "dose 5 mg/kg, dosed compound name [14C]LY2090314, route intravenous", "settings": "in vivo, read-out: beta t1/2 (converted)"}, "[21]": {"assay": "Drug recovery in Sprague-Dawley rat carcass at 5 mg/kg, iv administered for 30 mins during 0 to 168 hrs time interval by radio analysis", "type": "ADME, organism-based", "parameters": "dose 5 mg/kg, dosed compound name [14C]LY2090314, route intravenous", "settings": "in vivo"}, "Canis familiaris [22]": {"system": "Canis familiaris", "assay": "Drug recovery in beagle dog cage at 5 mg/kg, iv administered for 30 mins during 0 to 24 hrs time interval by radio analysis", "type": "ADME, organism-based, Canis lupus familiaris", "parameters": "dose 5 mg/kg, dosed compound name [14C]LY2090314, route intravenous", "settings": "in vivo"}, "[23]": {"assay": "Drug recovery in bile duct-cannulated Sprague-Dawley rat assessed as radioactivity in bile during 0 to 24 hrs at 5 mg/kg, iv administered for 30 mins relative to dosed radioactivity", "type": "ADME, organism-based", "parameters": "dose 5 mg/kg, dosed compound name [14C]LY2090314, route intravenous", "settings": "in vivo"}, "[24]": {"assay": "Cmax in cancer patient at 60 mg for 60 mins treated 1/1 cycle/day", "type": "ADME, organism-based", "parameters": "dose 60 mg, dosed compound name LY2090314", "settings": "human, in vivo"}, "[25]": {"assay": "Volume of distribution at steady state in cancer patient at 120 mg for 60 mins treated 1/1 cycle/day", "type": "ADME, organism-based", "parameters": "dosed compound name LY2090314", "settings": "human, in vivo, read-out: Vdss"}}, "data": [{"smiles": "O=C1NC(=O)C(c2cnc3ccccn23)=C1c1cn2c3c(cc(F)cc13)CN(C(=O)N1CCCCC1)CC2", "note": "[LY-2090314]", "values": [{"measurement": "Cmax", "setting": "[1]", "result": 5090, "unit": "ng/mL"}, {"measurement": "fraction unbound", "setting": "[2]", "result": 0.02}, {"measurement": "Radiolabel recovery", "setting": "Plasma [3]", "result": 36.09, "unit": "%"}, {"measurement": "Compound recovery", "setting": "Homo sapiens", "result": 1.6, "unit": "%"}, {"measurement": "clearance", "setting": "[4]", "result": 57.5, "unit": "mL/min/kg"}, {"measurement": "Vd", "setting": "[5]", "result": 64.1, "unit": "L"}, {"measurement": "Tmax", "setting": "Canis familiaris [6]", "result": 30, "unit": "min"}, {"measurement": "AUC(0-inf)", "setting": "[7]", "result": 938, "unit": "ng·h/mL"}, {"measurement": "clearance", "setting": "[8]", "result": 710, "unit": "mL/min"}, {"measurement": "beta t1/2", "setting": "Canis familiaris [9]", "result": 73.6, "unit": "h"}, {"measurement": "Radiolabel recovery", "setting": "[10]", "result": 96.7, "unit": "%"}, {"measurement": "clearance", "setting": "[11]", "result": 825, "unit": "mL/min"}, {"measurement": "Vd", "setting": "[12]", "result": 86.3, "unit": "L"}, {"measurement": "Drug metabolism", "setting": "Plasma [13]", "result": "metabolite_not_detected"}, {"measurement": "Tmax", "setting": "[14]", "result": 30, "unit": "min"}, {"measurement": "Radiolabel recovery", "setting": "[15]", "result": 85.2, "unit": "%"}, {"measurement": "Radiolabel recovery", "setting": "[16]", "result": 4.1, "unit": "%"}, {"measurement": "Radiolabel recovery", "setting": "Canis familiaris [17]", "result": 88, "unit": "%"}, {"measurement": "Radiolabel recovery", "setting": "[18]", "result": 6.75, "unit": "%"}, {"measurement": "clearance", "setting": "[19]", "result": 765, "unit": "mL/min"}, {"measurement": "Radiolabel recovery", "setting": "Rattus norvegicus", "result": 87, "unit": "%"}, {"measurement": "half-life", "setting": "[20]", "result": 39.7, "unit": "min"}, {"measurement": "Radiolabel recovery", "setting": "[21]", "result": 0.07, "unit": "%"}, {"measurement": "Radiolabel recovery", "setting": "Canis familiaris [22]", "result": 2.03, "unit": "%"}, {"measurement": "Radiolabel recovery", "setting": "[23]", "result": 91.8, "unit": "%"}, {"measurement": "Cmax", "setting": "[24]", "result": 881, "unit": "ng/mL"}, {"measurement": "Vd", "setting": "[25]", "result": 82.1, "unit": "L"}]}]}
